Data published in patent US20250197399A1, “COMPOUNDS, COMPOSITIONS, AND METHODS” (Tenvie Therapeutics, Inc., priority 2022, published 2025).
Like-named read-outs stand apart in the source and are kept apart here.

Tested on: NLRP3
Test: IL-1β secretion assay in PMA-differentiated, LPS/nigericin-stimulated THP-1 cells (ELISA)
Format: cell-based
Details: 25 ng/mL LPS then nigericin, IL-1β in supernatant
Experimental: Compounds as provided herein were tested in the following assay. Cell culture medium employed contained RPMI 1640 medium (89%), FBS (10%), Pen/Strep (1%), and 2-mercaptoethanol (0.05 mM). Freezing medium was made up of 90% FBS and 10% DMSO. THP-1 cells were removed from the liquid nitrogen and placed into a 37° C. water bath to thaw, until signs of ice dissipated. The cells were then added to 9 mL of warm cell culture medium and centrifuged for 5 minutes at 1000 rpm. The supernatant was discarded, and the cells were resuspended in new cell culture medium. THP-1 cells were then split and cultured in the cell culture medium, being passaged every 2-3 days with the cell density will be maintained between 5×10^5 and 1.5×10^6 viable cells/mL.
PMA was dissolved in DMSO to make a stock solution at 5 mg/ml and stored in 10 μl aliquots at −20° C. for single use. PMA is added to normal growth medium. LPS was diluted with 1 mL of water solution to provide a 1 mg/mL stock solution and stored in 15 μL aliquots at −20° C. for single use. Nigericin is diluted in ice cold 100% ethanol to 5 mg/ml (6.7 mM) and stored in 75 μL aliquots at −20° C. for single use. Serum-free media contains RPMI 1640 medium (99%), Pen/Strep (1%), and 2-mercaptoethanol (0.05 mM). The two control conditions used to qualify and normalize test compound dose-response curves were as follows: High Control=25 ng/mL LPS, […], 0.5% DMSO, Low Control=25 ng/mL, LPS, 0.5% DMSO.
THP-1 cells were diluted to provide a suspension at a concentration of 1.0×10^6 cells/mL with the total volume of suspension required to enable the desired number of assay plates. The growth media was supplemented with PMA (5 ng/mL final concentration) and the cells were incubated at 37° C. under a humidified atmosphere of 5% CO2 for 40 h.
All media was carefully aspirated from each culture flask. The cells were washed carefully with 1×DPBS. The cells were then briefly digested with trypsin LE for 5 minutes at 23° C. and immediately resuspended in cell growth media. After resuspension, the cells were centrifuged at 1000 rpm for 3 minutes and the supernatant was discarded. The cells were resuspended in DPBS and once again centrifuged at 1000 rpm for 5 minutes. The supernatant was discarded and the cell pellet was resuspended in serum-free media supplemented with LPS (25 ng/mL final concentration) to enable the distribution of 30K THP-1 cells within 45 μL of media into each well of 384-well PDL-coated plates. The 384-well plates were then incubated at 37° C. under a humidified atmosphere of 5% CO2 for 2 h. Following this period, test compounds were dispensed by Tecan across the desired concentration range with all wells normalized to a final 0.5% DMSO concentration. The plates were then then incubated at 37° C. under a humidified atmosphere of 5% CO2 for 1 h. Following this period, 5 μL of the 5 mg/mL nigericin stock solution was added to each of the appropriate wells and plates were centrifuged at 1000 rpm for 30 seconds. The plates were the immediately reintroduced to the incubator at 37° C. under a humidified atmosphere of 5% CO2 for 2 h. After this time, 35 μL/well of supernatant was collected and transferred into v-bottom plate and centrifuged at 1000 rpm for 1 minute. These supernatant aliquots were analyzed using an IL-Iβ detection kit as described below. If needed, the test samples could be snap frozen and stored at −80° C. until analyzed.
To prepare each ELISA plate, capture antibody (mAb Mt175) was diluted with PBS to a final concentration of […] and then 20 μL of this solution was added to each well of the ELISA plate. Each plate was allowed to incubate overnight at 4° C. The next day, the capture antibody solution was removed and discarded. Each ELISA plate was washed 4 times with PBST followed by the addition of 25 µL/well of blocking buffer (Licor-927-40010) supplemented with 0.1% Tween 20. Each ELISA plate was then allowed to incubate for 1 hour at 23° C. […]

[1] = Homo sapiens, THP-1, THP-1 cells, read-out: Activity (IC50 class)
[2] = THP-1 cells, read-out: Activity
[3] = THP-1 cells, read-out: Activity (IC50 class)
[4] = Homo sapiens, THP-1, THP-1 cells, read-out: Activity

O=C(CN1CC2(CC2(F)F)c2cc(C3CC3)ccc2C1=O)Nc1ncc(F)cn1 (single isomer, unassigned) [Example 28, N-(5-fluoropyrimidin-2-yl)-2-[6-cyclopropyl-1′,1′-difluoro-1-oxospiro[3H-isoquinoline-4,2′-cyclopropane]-2-yl]acetamide]
IC50 [1]: 1000 to 10000 nM | IC50 [2]: 5730 nM

O=C(CN1C[C@]2(C[C@H]2F)c2cc(C(F)(F)F)ccc2C1=O)Nc1nc2ccccn2n1 (single isomer, unassigned) [Example 50, 2-[(2′s,4r)-2′-fluoro-1-oxo-6-(trifluoromethyl)spiro[3H-isoquinoline-4,1′-cyclopropane]-2-yl]-N-([1,2,4]triazolo[1,5-a]pyridin-2-yl)acetamide]
IC50 [2]: 184 nM | IC50 [3]: < 1000 nM

Cc1cnc(NC(=O)CN2CC3(CC3(F)F)c3c(ccc(C4CC4)c3F)C2=O)nc1 (single isomer, unassigned) [Example 37, N-(5-methylpyrimidin-2-yl)-2-[6-cyclopropyl-1′,1′,5-trifluoro-1-oxospiro[3H-isoquinoline-4,2′-cyclopropane]-2-yl]acetamide]
IC50 [2]: 78 nM | IC50 [3]: < 1000 nM

C[C@]1(O)C[C@@H](NC(=O)CN2C[C@]3(C[C@H]3F)c3c(ccc(C4CC4)c3F)C2=O)C1 [Example 6, N-(3-cis-hydroxy-3-methylcyclobutyl)-2-[(2′s,4r)-2′,5-difluoro-6-cyclopropyl-1-oxospiro[3H-isoquinoline-4,1′-cyclopropane]-2-yl]acetamide]
IC50 [4]: 72 nM | IC50 [1]: < 1000 nM

O=C(CN1CC2(CC2(F)F)c2cc(C3CC3)ccc2C1=O)Nc1ncc(F)cn1 (single isomer, unassigned) [Example 29, N-(5-fluoropyrimidin-2-yl)-2-[6-cyclopropyl-1′,1′-difluoro-1-oxospiro[3H-isoquinoline-4,2′-cyclopropane]-2-yl]acetamide]
IC50 [2]: 86 nM | IC50 [3]: < 1000 nM

C[C@]1(O)C[C@@H](NC(=O)CN2C[C@]3(C[C@H]3F)c3cc(C4(F)CC4)ccc3C2=O)C1 [Example 4, N-(3-cis-hydroxy-3-methylcyclobutyl)-2-[(2′R,4S)-2′-fluoro-6-(1-fluorocyclopropyl)-1-oxospiro[3H-isoquinoline-4,1′-cyclopropane]-2-yl]acetamide]
IC50 [4]: 16 nM | IC50 [1]: < 1000 nM

O=C(CN1C[C@]2(C[C@H]2F)c2cc(C(F)(F)F)ccc2C1=O)Nc1nc2ccccn2n1 (single isomer, unassigned) [Example 49, 2-[(2′s,4r)-2′-fluoro-1-oxo-6-(trifluoromethyl)spiro[3H-isoquinoline-4,1′-cyclopropane]-2-yl]-N-([1,2,4]triazolo[1,5-a]pyridin-2-yl)acetamide]
IC50 [1]: 1000 to 10000 nM | IC50 [2]: 1960 nM

O=C(CN1C[C@]2(C[C@H]2F)c2cc(C3(F)CC3)ccc2C1=O)Nc1ncc(C(F)(F)F)cn1 [Example 1, 2-[(2′R,4S)-2′-fluoro-6-(1-fluorocyclopropyl)-1-oxospiro[3H-isoquinoline-4,1′-cyclopropane]-2-yl]-N-(5-(trifluoromethyl)pyrimidin-2-yl)acetamide]
IC50 [4]: 24 nM | IC50 [1]: < 1000 nM

O=C(CN1C[C@@]2(C[C@@H]2F)c2c(ccc(C(F)(F)F)c2F)C1=O)Nc1ncc(Cl)cn1 (single isomer, unassigned) [Example 12, 2-[(2′s,4r)-2′,5-difluoro-1-oxo-6-(trifluoromethyl)spiro[3H-isoquinoline-4,1′-cyclopropane]-2-yl]-N-(5-chloropyrimidin-2-yl)acetamide]
IC50 [1]: < 1000 nM | IC50 [2]: 54 nM

O=C(CN1CC2(CC2)c2cc(Br)ccc2C1=O)Nc1ncc2c(C(F)(F)F)n[nH]c2n1 [Example 58, 2-(6-bromo-1-oxospiro[3H-isoquinoline-4,1′-cyclopropane]-2-yl)-N-[3-(trifluoromethyl)-1H-pyrazolo[3,4-d]pyrimidin-6-yl]acetamide]
IC50 [4]: 279 nM | IC50 [1]: < 1000 nM

O=C(CN1CC2(CC2(F)F)c2cc(C(F)(F)F)ccc2C1=O)Nc1ncc(Cl)cn1 (single isomer, unassigned) [Example 39, N-(5-chloropyrimidin-2-yl)-2-[1′,1′-difluoro-6-(trifluoromethyl)-1-oxospiro[3H-isoquinoline-4,2′-cyclopropane]-2-yl]acetamide]
IC50 [2]: 6960 nM | IC50 [3]: 1000 to 10000 nM

O=C(CN1CC2(CC2(F)F)c2cc(C(F)(F)F)ccc2C1=O)Nc1ncc(Cl)cn1 (single isomer, unassigned) [Example 38, N-(5-chloropyrimidin-2-yl)-2-[1′,1′-difluoro-6-(trifluoromethyl)-1-oxospiro[3H-isoquinoline-4,2′-cyclopropane]-2-yl]acetamide]
IC50 [1]: < 1000 nM | IC50 [2]: 126 nM

Cc1cnc(NC(=O)CN2CC3(CC3(F)F)c3cc(Br)ccc3C2=O)nc1 (single isomer, unassigned) [Example 18, N-(5-methylpyrimidin-2-yl)-2-[6-bromo-1′,1′-difluoro-1-oxospiro[3H-isoquinoline-4,2′-cyclopropane]-2-yl]acetamide]
IC50 [1]: 1000 to 10000 nM | IC50 [2]: 3480 nM

O=C(CN1C[C@]2(C[C@H]2F)c2cc(C(F)(F)F)ccc2C1=O)Nc1ncc2cn[nH]c2n1 (single isomer, unassigned) [Example 48, 2-[(2′s,4r)-2′-fluoro-1-oxo-6-(trifluoromethyl)spiro[3H-isoquinoline-4,1′-cyclopropane]-2-yl]-N-(1H-pyrazolo[3,4-d]pyrimidin-6-yl)acetamide]
IC50 [2]: 24 nM | IC50 [3]: < 1000 nM

COC(=O)C12CC(NC(=O)CN3CC4(CC4)c4cc(Br)ccc4C3=O)(C1)C2 [Example 60, methyl 3-[[2-(6-bromo-1-oxospiro[3H-isoquinoline-4,1′-cyclopropane]-2-yl)acetyl]amino]bicyclo[1.1.1]pentane-1-carboxylate]
IC50 [4]: 216 nM | IC50 [1]: < 1000 nM

C[C@]1(O)C[C@@H](NC(=O)CN2CC3(CC3(F)F)c3cc(C4(F)CC4)ccc3C2=O)C1 (single isomer, unassigned) [Example 22, N-(3-cis-hydroxy-3-methylcyclobutyl)-2-[1′,1′-difluoro-6-(1-fluorocyclopropyl)-1-oxospiro[3H-isoquinoline-4,2′-cyclopropane]-2-yl]acetamide]
IC50 [2]: 8340 nM

O=C(CN1CC2(CC2)c2cc(Br)ccc2C1=O)Nc1ncc2nc[nH]c2n1 [Example 55, 2-(6-bromo-1-oxospiro[3H-isoquinoline-4,1′-cyclopropane]-2-yl)-N-(9H-purin-2-yl)acetamide]
IC50 [4]: 114 nM | IC50 [1]: < 1000 nM

O=C(CN1CC2(CC2(F)F)c2cc(Br)ccc2C1=O)Nc1ncc(Cl)cn1 (single isomer, unassigned) [Example 17, N-(5-chloropyrimidin-2-yl)-2-[6-bromo-1′,1′-difluoro-1-oxospiro[3H-isoquinoline-4,2′-cyclopropane]-2-yl]acetamide]
IC50 [2]: 28 nM | IC50 [3]: < 1000 nM

O=C(CN1CC2(CC2(F)F)c2c(ccc(C3CC3)c2F)C1=O)Nc1ncc(Cl)cn1 (single isomer, unassigned) [Example 35, N-(5-chloropyrimidin-2-yl)-2-[6-cyclopropyl-1′,1′,5-trifluoro-1-oxospiro[3H-isoquinoline-4,2′-cyclopropane]-2-yl]acetamide]
IC50 [2]: 16 nM | IC50 [3]: < 1000 nM
